Results: patent US20240307362A1 (priority 2019, published 2024)
Where two headings read alike, the source gives them in different places.

Columns and labels:
Format in all cases: cell-based
Ba/F3-EGFR-WT = experiment: Ba/F3 cell survival assay, WT EGFR
[1] = test system: Ba/F3-EGFR-V769_D770insASV; experiment: Ba/F3 cell survival assay, EGFR V769_D770insASV; conditions: 48 h, read-out: BA/F3 (ASV) IC50
Protocol: (§1) 293T cells from ATCC were transfected with pBABEpuro expression constructs for mutant EGFR (V769_D770insASV, D770_N771insNPG, N771_P772insH, H773_V774insNPH, E746_A750del, L858R, D770_N771 insSVD C797S, E746_A750del C797S, L858R C797S, L861Q) or mutant ERBB2 (A775_G776insYVMA) and pCL-Eco packaging vector using Fugene-6 transfection reagent from Promega. Plates were incubated at 37° C. for 48 h. Retrovirus was harvested by filtering the media supernatant through a 0.45 μm filter.
(§2) Ba/F3 cells purchased from DSMZ were grown in RPMI+10% FBS+10 ng/mL IL-3 and infected with filtered retroviral supernatant at a 1:2 dilution. Polybrene was added to a concentration of 8 μg/mL, plates were spun for 90 min, and incubated overnight at 37° C. 2 μg/mL puromycin was added to the infected cells 24 h after infection and cells were continually grown in the presence of puromycin and 10 ng/mL IL-3. Following stably expressing Ba/F3 cell lines were generated: Ba/F3-EGFR-V769_D770insASV, Ba/F3-EGFR-D770_N771insNPG, Ba/F3-EGFR-N771_P772insH, Ba/F3-EG, Ba/F3-EGFR-H773_V774insNPH, Ba/F3-EGFR-E746_A750del, Ba/F3-EGFR-L858R, Ba/F3-EGFR-D770_N771 insSVD C797S, Ba/F3-EGFR-E746_A750del C797S, Ba/F3-EGFR-L858R C797S, Ba/F3-EGFR L861Q and Ba/F3-ERBB2-A775_G776insYVMA (Ba/F3—vector-control).
(§3) For cell survival assays, Ba/F3 cells were grown to a density of 1-2 million cells per mL, spun down and resuspended in media without IL-3, and replated at a concentration 200,000-500,000 cells per mL. The cells ectopically expressing WT EGFR plated with 10 ng/mL Millipore Culture grade EGF and Ba/F3 cells containing mutant EGFR or Mutant ERBB2 were cultivated without EGF. The cells ectopically expressing pBABEpuro empty vector were plated with 10 ng/mL IL-3.
(§4) 2 days later, cells were plated in 50 μL in a 384 well plate at a concentration of 4000 cells per well for cells assayed in the absence of IL-3 and 2000 cells per well for cells assayed in the presence of IL-3. 100 nL of compound was added to each well using a 100 nL pin head, and plates were incubated at 37° C. for 48 h.
(§5) Cell viability was measured by adding 20 μL of Cell Titer-Glo Luminescent Cell Viability Reagent diluted 1:3 in PBS. Plates were sealed with Perkin Elmer Top-Seal, inverted several times to mix, and immediately centrifuged at 1000 rpm for 2 min. Plates were incubated in low light conditions for 8-10 min and luminescence was measured.

Ba/F3-EGFR-N771_P772insH = experiment: Ba/F3 cell survival assay, EGFR N771_P772insH; conditions: 48 h, read-out: BA/F3 (EGFR N771— P772insH) IC50
Protocol: as §1, §2, §3, §4, §5

[2] = test system: Ba/F3-EGFR-H773_V774insNPH; experiment: Ba/F3 cell survival assay, EGFR H773_V774insNPH; conditions: Ba/F3 EGFR-H773-V774ins_NPH, 48 h, read-out: BA/F3 (EGFR H773— V774insNPH) IC50
Protocol: as §1, §2, §3, §4, §5

Ba/F3-EGFR-E746_A750del = experiment: Ba/F3 cell survival assay, EGFR E746_A750del; conditions: 48 h, read-out: BA/F3 (EGFR E746_A750del) IC50
Protocol: as §1, §2, §3, §4, §5

[3] = test system: Ba/F3-EGFR-D770_N771 insSVD C797S; experiment: Ba/F3 cell survival assay, EGFR D770_N771insSVD C797S; conditions: Ba/F3 EGFR-D770-N771ins_SVD, 48 h, read-out: BA/F3 (EGFR 0770_N771 insSVD C797S) IC50
Protocol: as §1, §2, §3, §4, §5

[4] = test system: Ba/F3-EGFR-E746_A750del C797S; experiment: Ba/F3 cell survival assay, EGFR E746_A750del C797S; conditions: 48 h, read-out: BA/F3 (EGFR E746_A750del C797S) IC50
Protocol: as §1, §2, §3, §4, §5

HCC-827 cells = experiment: HCC-827 cell proliferation assay (EGFRex19del); conditions: Homo sapiens, HCC827, 72 h, read-out: HCC-827 IC50
Protocol: HCC-827 cells were purchased from ATCC. […] cells per well were seeded in growth medium (RPMI1640, 10% FCS) in a 384-well plate (CORNING #3571). Seed reference plate for time zero determination on the same day. All plates were incubated overnight at 37° C. After 24 hours, test compound were added in 7-step dilution using HP Compound printer and incubated at 37° C. for 72 h. After 3 days, 30 μL/well CTG solution (Promega Cell Titer Glo solution; catalog #G755B and G756B) were added to each well, incubated for 30 minutes and the plate were read on PheraStar. Proliferation is calculated after subtracting time zero luminescence values from day 4 values and comparing to untreated wells.
The IC50 values were determined using the four parameter fit.

[5] = read-out: BA/F3 (wild type) IC50, cell viability, Cell Titer-Glo, 48 h, with 10 ng/mL EGF, without IL-3

## COc1c(Cl)cccc1Nc1c(-c2ccncc2OCC2(C)CCO2)[nH]c2c1C(=O)NCC2 (single isomer, unassigned; (+)) [Example 48, (+)-3-(3-chloro-2-methoxyanilino)-2-{3-[(2-methyloxetan-2-yl)methoxy]pyridin-4-yl}-1,5,6,7-tetrahydro-4H-pyrrolo[3,2-c]pyridin-4-one]
Ba/F3-EGFR-WT; [5]
  IC50: 350 nM
[1]
  IC50: 11.4 nM
Ba/F3-EGFR-N771_P772insH
  IC50: 5.13 nM
[2]
  IC50: 38.3 nM
Ba/F3-EGFR-E746_A750del
  IC50: 0.34 nM
[3]
  IC50: 16.7 nM
[4]
  IC50: 0.34 nM
HCC-827 cells
  IC50: < 3 nM

## COc1c(Cl)cccc1Nc1c(-c2ccncc2OCC2OCC2(C)C)[nH]c2c1C(=O)NCC2 (single isomer, unassigned; (+)) [Example 50, (+)-3-(3-chloro-2-methoxyanilino)-2-{3-[(3,3-dimethyloxetan-2-yl)methoxy]pyridin-4-yl}-1,5,6,7-tetrahydro-4H-pyrrolo[3,2-c]pyridin-4-one]
Ba/F3-EGFR-WT; [5]
  IC50: 349 nM
[1]
  IC50: 16.4 nM
Ba/F3-EGFR-N771_P772insH
  IC50: 7.64 nM
[2]
  IC50: 45.4 nM
Ba/F3-EGFR-E746_A750del
  IC50: 0.519 nM
[3]
  IC50: 35.1 nM
[4]
  IC50: 0.519 nM
HCC-827 cells
  IC50: < 3 nM

## COc1c(Cl)cccc1Nc1c(-c2ccncc2OCCC2CCO2)[nH]c2c1C(=O)NCC2 (single isomer, unassigned; (-)) [Example 26, (−)-3-(3-chloro-2-methoxyanilino)-2-{3-[2-(oxetan-2-yl)ethoxy]pyridin-4-yl}-1,5,6,7-tetrahydro-4H-pyrrolo[3,2-c]pyridin-4-one]
Ba/F3-EGFR-WT; [5]
  IC50: 204 nM
[1]
  IC50: 9.36 nM
Ba/F3-EGFR-N771_P772insH
  IC50: 3.7 nM
[2]
  IC50: 29.6 nM
Ba/F3-EGFR-E746_A750del
  IC50: 0.27 nM
[3]
  IC50: 13.7 nM
[4]
  IC50: 0.27 nM
HCC-827 cells
  IC50: < 3 nM

## COc1c(Cl)cccc1Nc1c(-c2ccncc2OC[C@@H]2CCO2)[nH]c2c1C(=O)NCC2 [Example 2, 3-(3-chlor-2-methoxyanilino)-2-{3-[(2S)-oxetan-2-ylmethoxy]pyridin-4-yl}-1,5,6,7-tetrahydro-4H-pyrrolo[3,2-c]pyridin-4-on]
Ba/F3-EGFR-WT; Mus musculus, BaF3, 48 h, read-out: BA/F3 (wild type) IC50, cell viability, Cell Titer-Glo, 48 h, with 10 ng/mL EGF, without IL-3
  IC50: 282 nM
[1]
  IC50: 9.73 nM
Ba/F3-EGFR-N771_P772insH
  IC50: 5.59 nM
[2]
  IC50: 30.1 nM
Ba/F3-EGFR-E746_A750del
  IC50: 0.328 nM
[3]
  IC50: 17.5 nM
[4]
  IC50: 0.328 nM
HCC-827 cells
  IC50: < 3 nM
